Test results from PMC9995496, “A screen for MeCP2-TBL1 interaction inhibitors using a luminescence-based assay” (Scientific Reports, 2023).

The compounds below were run against T1, MeCP2-TBL1 interaction (MeCP2-SmBiT / TBL1-LgBiT) (Mus musculus, UniProt Q9QXE7) (assay: MeCP2-TBL1 NanoLuc luciferase complementation assay (cell-free, extracts of transfected HEK293 cells)). Settings: primary screen of Asinex library, single well per compound.
T1 construct: expressed in transfected cells; crude lysate used as a cell-free assay
T1 sequence (Q9QXE7 166-527): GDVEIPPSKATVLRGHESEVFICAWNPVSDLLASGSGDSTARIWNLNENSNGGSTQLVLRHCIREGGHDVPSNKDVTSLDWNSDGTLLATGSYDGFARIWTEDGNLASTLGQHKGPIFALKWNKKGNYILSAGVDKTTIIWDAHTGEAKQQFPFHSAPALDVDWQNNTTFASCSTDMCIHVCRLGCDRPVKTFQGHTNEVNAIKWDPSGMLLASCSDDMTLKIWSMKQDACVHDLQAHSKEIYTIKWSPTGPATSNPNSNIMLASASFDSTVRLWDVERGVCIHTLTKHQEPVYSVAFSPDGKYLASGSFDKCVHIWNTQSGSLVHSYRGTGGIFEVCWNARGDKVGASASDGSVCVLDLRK
Type: binding, human
From the text: To facilitate the discovery of inhibitors of the interaction between MeCP2 and TBL1/TBLR1, we set out to devise a simple and scalable biochemical assay for measuring the interaction between these two proteins. We initially explored the possibility of screening compound libraries using a previously established fluorescence polarization assay that depends on purified recombinant TBL1/TBLR1[26]. […] The resulting luminescence signal depends on the affinity between the two interacting proteins of interest (Fig. 1A). This method was originally developed to allow for the interrogation of protein–protein interactions in vivo. However, in order to facilitate large scale screening of chemical libraries, we adapted the assay for use as a cell-free system.
We fused the large N-terminal fragment of NanoLuc (LgBiT) to the C-terminus of the WD repeat domains of both TBL1 and TBLR1, and the small C-terminal fragment of NanoLuc (SmBiT) to the C-terminus of the C-terminal half of MeCP2 (Fig. 1B and C). This region of MeCP2 contains the NID (NCoR interaction domain)—the motif in MeCP2 that binds to TBL1/TBLR1.
The AgeI-NotI restriction fragment (encoding EGFP) was then replaced with a codon optimized SmBiT sequence to yield the MeCP2-SmBiT expression plasmid. The TBL1-LgBiT expression vector was derived from a TBL1-mCherry plasmid[25] by replacing the AgeI-NotI restriction fragment (encoding mCherry) with a codon optimized LgBiT sequence. SmBiT-PRKACA and LgBiT-PRKAR2A plasmids are commercially available (Promega, N203 and N204).
Cells were harvested after 24 h and cell pellets were stored at − 80 °C.
In the screens described here, the lysate obtained from a single 15 cm plate was used for 2.5 384-well assay plates. NanoLuc substrate (furimazine) (Promega, N1110) was diluted 1000-fold in passive lysis buffer (Promega, E1941) and added 1:1 to the lysate. Screening libraries were purchased from Asinex[40] and ApexBio (FDA-approved Drug Library, L1021). Compounds were dispensed using an Echo acoustic dispenser and tested at a final concentration of 20 µM in a total assay volume of 20 μl in 384-well plate format. DMSO was added to each well at a final concentration of 0.2% (v/v) and wells containing only DMSO were used as negative control. After 30 min incubation at room temperature, luminescence was measured on a Tecan M1000 multi-mode plate reader. Raw luminescence reads from each well on each plate were normalized to the median luminescence signal for that plate. In the ApexBio screen, the scaled and normalized PKA signal for each compound was subtracted from the MeCP2-TBL1 signal for the same compound. After plate normalization the robust SSMD (SSMD*) was calculated as described elsewhere. A threshold of SSMD* ≥ 3 was applied for discerning primary hits.
Assays were performed as described above except instead of a single concentration, a threefold serial dilution ranging from 60 to 0.03 μM was tested in triplicate for each of the compounds. Half-maximal inhibitory concentrations were calculated using global nonlinear regression by fitting the response data sets of all compounds simultaneously with a four-parameter logistic curve of log inhibitor concentration versus normalized luminescence using GraphPad Prism. During fitting, the maximum and minimum curve values were shared between the data sets.

Row | Inhibition percent | Structure (SMILES)
1 | -2.18 | CC(C)(C)c1ccc2c(c1)N(CC(=O)N1CCCCC1CCNC(=O)c1ccccc1)C(=O)CO2 (stereo not shown) [BDE_33630290]
2 | -2.55 | CN(C)c1ncc(-c2cccc(C(N)=O)c2)c(C2CCCCN2CC(=O)NCc2ccccn2)n1 (stereo not shown) [BDE_33632669]
3 | 12.36 | O=C(OCc1ccccc1)N1C[C@@H](O)[C@H](N(Cc2ccccc2)Cc2ccc(F)c(F)c2)C1 [BDE_33958860]
4 | 0.85 | Cn1nc(C(F)(F)F)cc1C(=O)NCC[C@@H]1C[C@@H](S(=O)(=O)c2ccccc2)CCO1 [BDF_23100510]
5 | -1.14 | Cc1nc(C2CCN(C(=O)C3CCCCC3)C2)nc2c1CC(=O)N2CCCc1ccccc1 (stereo not shown) [BDF_25113060]
6 | 3.93 | Cc1ccc(=O)n(CC(=O)N2CCOC3(CC=CCN(CCc4ccccc4)C3=O)C2)n1 (stereo not shown) [BDF_25862113]
7 | -5.79 | CC(=O)N[C@@]12CCN(S(=O)(=O)Cc3cccc(Cl)c3)C[C@@H]1[C@@H](c1ccccc1)N(C(C)=O)C2 [BDF_30361318]
8 | -0.22 | COCCOc1cccc(CN2[C@H](Cc3ccccc3F)C[C@@H]3NC(=O)CCCC[C@H]32)c1 [BDG_23917768]

Same assay, conditions: primary screen of the Asinex library, sheet "Sargen output Asinex library", one well per compound

Row | Inhibition percent | Structure (SMILES)
9 | -2.31% | COCc1nc2ccccc2n1CC(=O)N1CCCCC1C1CCN(C(=O)c2cnc(C)cn2)CC1 (stereo not shown) [BDE_33628056]
10 | 1.99% | CNC(=O)c1ccc(-c2cccc(C3CN(CC(=O)NCc4ccccn4)CCO3)n2)cn1 (stereo not shown) [BDF_25324043]

Further lines, the compound ahead of its results:

Row | Structure (SMILES) | Inhibition percent
11 | COc1ccccc1CC(=O)N1CCCCC1c1ncc(Cc2ccccc2OC)o1 (stereo not shown) [BDE_33514655] | 5.46%
12 | COc1cccc(Cc2cnc(C3CCCCN3C(=O)Cc3ccccc3OC)o2)c1 (stereo not shown) [BDE_33514656] | 2.98%
13 | Cn1c(COCC(=O)N2CCCCC2c2cc(C(=O)NC3CCCC3)[nH]n2)nc2ccccc21 (stereo not shown) [BDE_33628409] | -3.22%
14 | Cc1ccc2ncnc(NCCC(=O)N3CCCCC3c3cc(C(=O)NC4CCCC4)[nH]n3)c2c1 (stereo not shown) [BDE_33629308] | 0.99%
15 | Cc1cc(Oc2ccc(C(N)=O)cc2)nc(C2CCCCN2C(=O)CCCN2CCCCCC2)n1 (stereo not shown) [BDE_33629625] | -1.16%
16 | O=C(NC1CCCC1)c1cc(C2CCCCN2C(=O)C2CCN(Cc3ccncc3)CC2)n[nH]1 (stereo not shown) [BDE_33629993] | -2.91%
17 | Cc1ccc2nc(COCC(=O)N3CCCC3c3ccnc(-c4cccc(Cl)c4)n3)[nH]c2c1 (stereo not shown) [BDE_33630067] | 1.05%
18 | COc1ccc(S[C@@H]2CCO[C@@H](CCNC(=O)c3cc(OC)nc(OC)n3)C2)cc1 [BDF_22929100] | -1.50%
19 | CCc1nnsc1C(=O)N(CC)[C@H]1CCO[C@@H](c2cccc(-c3cncnc3)c2)C1 [BDF_23117916] | -3.67%
20 | CCN(Cc1cnn(-c2ccc(C)cc2)c1)[C@@H]1CCO[C@H](c2ccc(C(=O)N(C)C)cc2)C1 [BDF_24511039] | -0.31%
21 | Cc1ccccc1OCCC(=O)N1CCC(c2nc(N(C)C)ncc2-c2cccc(F)c2)C1 (stereo not shown) [BDF_24539058] | 9.04%
22 | Cc1cc(C)nc(NCCC(=O)N2CCOC(c3cccc(Cc4ccccc4C)n3)C2)n1 (stereo not shown) [BDF_25252602] | -1.37%
23 | Cc1cccc(CN(CCc2c[nH]c3ccccc23)[C@@H]2CC[C@@H](NCc3ccccc3)[C@H]2O)c1 [BDF_33953574] | 3.88%

Same assay, conditions: primary screen of the Asinex library, sheet "Sargen output Asinex library", one well per compound, Batch Ref. 1

Row | Inhibition percent | Structure (SMILES)
24 | -2.14% | CNc1nc(C2CCCCN2C(=O)CCCN(C)c2ccccc2)nc2c1CCN(C(C)=O)C2 (stereo not shown) [BDE_33628015]
25 | -3.25% | O=C(CN1CCC(C2CCCCN2C(=O)C2CCN(Cc3ccccn3)CC2)CC1)N1CCCC1 (stereo not shown) [BDE_33629903]
26 | 0.26% | O=C(c1ccc(CN2CCOCC2)cc1)N1CCCC1c1ccnc(-c2cccc(Cl)c2)n1 (stereo not shown) [BDE_33630026]
27 | -0.43% | COCCNC(=O)c1sc2ncccc2c1C1CCN(Cc2ccc3ncccc3c2)C1 (stereo not shown) [BDF_24020930]
28 | -4.29% | CCN(CC)C(=O)CN1CCOC(c2c(C(=O)N3CCOCC3)sc3ncccc23)C1 (stereo not shown) [BDF_24025276]
29 | -1.26% | Cc1nnc(Nc2cccc(C3CN(C(=O)Cn4c(C)cc5ccccc54)CCO3)n2)s1 (stereo not shown) [BDF_25244494]
30 | -0.41% | Cc1cc(Nc2cccc(C3CN(C(=O)Cc4ccc5c(c4)CCCO5)CCO3)n2)nn1C (stereo not shown) [BDF_25246163]
31 | 6.97% | Cc1ccccc1Cc1cccc(C2CN(C(=O)c3nccc4ccccc34)CCO2)n1 (stereo not shown) [BDF_25249064]
32 | -1.98% | O=C(CCc1[nH]nc2c1CCCC2)N1CCOC(c2cccc(Cc3ccc(F)cc3)n2)C1 (stereo not shown) [BDF_25251125]
33 | 7.95% | NC(=O)c1cccc(-c2cccc(C3CN(C(=O)CCc4cccc(Cl)c4)CCO3)n2)c1 (stereo not shown) [BDF_25272769]
34 | 0.68% | O=C(CC1CCCCC1)N1CCOC(c2nccnc2-c2cccc(C(F)(F)F)c2)C1 (stereo not shown) [BDF_25939482]
35 | 3.08% | Cc1cc(Cc2ccccc2F)cc(C2CN(C(=O)Cn3cnc4ccccc43)CCO2)n1 (stereo not shown) [BDF_26219772]
36 | 32.27% | FC(F)(F)c1ccccc1Cc1cccc(C2CN(Cc3cccnc3)CCO2)n1 (stereo not shown) [BDF_27574784]
37 | 0.59% | CC(=O)Nc1ccc(C(=O)N2CCOC(c3cccc(Cc4ccccc4Cl)n3)C2)cc1 (stereo not shown) [BDF_27578760]

More lines, now with the values behind:

Row | Structure (SMILES) | Inhibition percent
38 | O=C(c1cccc(-c2cncnc2)n1)N1CCCCC1c1ncc(Cc2cccc(F)c2)o1 (stereo not shown) [BDE_33514471] | -1.40%
39 | COc1cccc(Cc2cnc(C3CCCCN3C(=O)c3cccnc3-c3cncs3)o2)c1 (stereo not shown) [BDE_33514740] | 1.71%
40 | O=C(CCCC(=O)N1CCCCC1c1n[nH]cc1-c1ccc(C(F)(F)F)cc1)Nc1ccccn1 (stereo not shown) [BDE_33631892] | 4.13%
41 | CCCN1CCN(C(=O)c2c[nH]cn2)CC(Cc2ccccc2-c2ccccc2OC)C1=O (stereo not shown) [BDE_33754981] | 0.35%
42 | COc1ccccc1-c1ccc(CN2C[C@@H](c3ccccc3F)[C@@]3(CCCC(=O)N3)C2)cc1 [BDF_20367643] | 18.11%
43 | CC(=O)N1CCC(Cc2cc(-c3ccccc3)no2)(C(=O)N2CCC(C(C)(C)C)CC2)C1 (stereo not shown) [BDF_23076577] | 2.56%
44 | CC(=O)N1CCC(Cc2cc(-c3ccccc3)no2)(C(=O)Nc2ccccc2OC(C)C)C1 (stereo not shown) [BDF_23076638] | 1.76%
45 | CC(=O)N[C@@H]1CCO[C@H](c2ccc(NC(=O)C(c3ccccc3)c3ccccc3)cc2)C1 [BDF_23111075] | 0.91%
46 | Cc1cc(CCCC(=O)N2CCC(c3nc(N(C)C)ncc3-c3cncnc3)C2)ccc1F (stereo not shown) [BDF_24540183] | 0.11%
47 | NC(=O)C1(Cc2cc(C3CCCCC3)no2)CCN(C(=O)CN2CCCCCC2=O)C1 (stereo not shown) [BDF_24693170] | -2.18%
48 | Cc1cc(-c2ccc(N)nc2)cc(C2CN(C(=O)CCc3cccc(Cl)c3)CCO2)n1 (stereo not shown) [BDF_26216758] | 8.38%
49 | Cc1cc(Cc2cccc(F)c2)cc(C2CN(C(=O)Cc3ccc(F)cc3)CCO2)n1 (stereo not shown) [BDF_26219393] | -0.80%
50 | Cc1nc(C2(O)CCCN(Cc3ccncc3)CC2)sc1CCOc1ccccc1 (stereo not shown) [BDF_26909339] | -3.76%
51 | CC(=O)Nc1cccc([C@@H]2CN(CCc3ccc(F)cc3)C[C@]23CCCCC(=O)N3)c1 [BDF_30280717] | -0.37%
52 | COc1ccccc1-c1ccc(CN2[C@@H](c3ccccc3)C[C@@H]3NC(=O)CCC[C@H]32)cc1 [BDG_23930473] | 6.28%
